Source: ChEMBL document CHEMBL2331425, “Triazolo and imidazo dihydropyrazolopyrimidine potassium channel antagonists” (Bioorg Med Chem Lett, 2013)

Target: Voltage-gated L-type calcium channel (Homo sapiens, UniProt Q13936+Q13698+Q01668+O60840)
Test: Inhibition of L-type calcium channel (unknown origin)
Conditions: not given

Row | Compound | IC50
1 | CC1=C(c2ncnn2C2CCC(C(F)(F)F)CC2)[C@@H](c2ccc(Cl)c(Cl)c2)n2nc(C(F)(F)F)cc2N1 (single isomer, unassigned; isomer 1) | 5.2 µM

Tested on: not listed separately
Test: Inhibition of sodium channel (unknown origin)
Set-up: species or system Homo sapiens
Conditions: not given

Row | Compound | IC50
2 | CC1=C(c2ncnn2C2CCC(C(F)(F)F)CC2)[C@@H](c2ccc(Cl)c(Cl)c2)n2nc(C(F)(F)F)cc2N1 (single isomer, unassigned; isomer 1) | 46 µM

Target: Cytochrome P450 2C9 (Homo sapiens, UniProt P11712)
Test: Inhibition of CYP2C9 (unknown origin)
Assay type: ADME
Conditions: not given

Chain of Cytochrome P450 2C9 (P11712 whole entry): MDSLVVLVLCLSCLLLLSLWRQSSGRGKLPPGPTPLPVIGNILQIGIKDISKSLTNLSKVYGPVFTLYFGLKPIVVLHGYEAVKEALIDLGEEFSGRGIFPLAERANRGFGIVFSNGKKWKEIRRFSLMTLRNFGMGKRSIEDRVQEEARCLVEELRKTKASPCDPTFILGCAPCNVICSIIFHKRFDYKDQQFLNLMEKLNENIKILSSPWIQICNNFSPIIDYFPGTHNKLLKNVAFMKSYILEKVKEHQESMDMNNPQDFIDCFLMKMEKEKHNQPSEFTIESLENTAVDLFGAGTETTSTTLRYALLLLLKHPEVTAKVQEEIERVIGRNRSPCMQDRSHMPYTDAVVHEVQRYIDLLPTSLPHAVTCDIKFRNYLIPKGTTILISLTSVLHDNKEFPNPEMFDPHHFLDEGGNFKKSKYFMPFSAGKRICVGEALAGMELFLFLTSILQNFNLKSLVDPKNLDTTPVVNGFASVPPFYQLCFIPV

Row | Compound | INH
3 | CC1=C(c2ncnn2C2CCC(C(F)(F)F)CC2)[C@@H](c2ccc(Cl)c(Cl)c2)n2nc(C(F)(F)F)cc2N1 (single isomer, unassigned; isomer 1) | 7 µM
4 | CC1=C(c2ncnn2C2CCC(C(F)(F)F)CC2)[C@@H](c2ccc(Cl)c(Cl)c2)n2nc(C(F)(F)F)cc2N1 (single isomer, unassigned; isomer 2) | 8 µM

Target: hERG (KCNH2) (Homo sapiens, UniProt Q12809)
Test: Inhibition of human ERG current in HEK293 cells at 10 uM by patch clamp method relative to control
Assay type: cell-based
Conditions: HEK293 cells expressing human ERG

Chain of hERG (KCNH2) (Q12809 whole entry): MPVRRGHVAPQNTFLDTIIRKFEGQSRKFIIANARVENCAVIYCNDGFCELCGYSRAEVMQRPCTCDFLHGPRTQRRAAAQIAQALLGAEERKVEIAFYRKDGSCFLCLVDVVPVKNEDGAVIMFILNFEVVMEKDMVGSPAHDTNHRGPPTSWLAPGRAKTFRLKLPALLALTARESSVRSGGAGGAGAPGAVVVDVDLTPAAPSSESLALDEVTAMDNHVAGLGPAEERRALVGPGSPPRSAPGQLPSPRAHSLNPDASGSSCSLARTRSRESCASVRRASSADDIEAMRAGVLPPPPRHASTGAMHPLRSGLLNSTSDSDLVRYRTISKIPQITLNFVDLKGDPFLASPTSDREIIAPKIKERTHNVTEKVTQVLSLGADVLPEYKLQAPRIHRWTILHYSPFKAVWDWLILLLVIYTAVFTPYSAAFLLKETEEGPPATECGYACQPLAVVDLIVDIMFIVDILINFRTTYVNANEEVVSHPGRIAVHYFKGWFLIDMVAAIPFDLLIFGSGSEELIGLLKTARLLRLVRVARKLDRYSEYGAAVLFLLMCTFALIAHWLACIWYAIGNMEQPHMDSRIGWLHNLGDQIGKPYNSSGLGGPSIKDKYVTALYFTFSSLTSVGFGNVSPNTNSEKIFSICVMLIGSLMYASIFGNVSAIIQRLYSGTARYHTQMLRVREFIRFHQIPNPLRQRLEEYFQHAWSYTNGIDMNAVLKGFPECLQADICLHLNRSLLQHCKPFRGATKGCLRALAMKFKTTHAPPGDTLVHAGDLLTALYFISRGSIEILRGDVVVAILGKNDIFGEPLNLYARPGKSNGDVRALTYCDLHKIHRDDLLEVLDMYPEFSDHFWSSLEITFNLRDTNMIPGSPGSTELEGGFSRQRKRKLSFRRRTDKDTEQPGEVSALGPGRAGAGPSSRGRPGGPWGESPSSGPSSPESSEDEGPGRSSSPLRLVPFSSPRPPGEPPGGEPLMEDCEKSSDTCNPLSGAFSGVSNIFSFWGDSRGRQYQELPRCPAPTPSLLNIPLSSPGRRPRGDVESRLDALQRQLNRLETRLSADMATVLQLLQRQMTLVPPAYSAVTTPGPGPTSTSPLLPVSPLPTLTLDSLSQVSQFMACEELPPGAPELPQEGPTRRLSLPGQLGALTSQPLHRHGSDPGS

Row | Compound | inhibition at 10 µM
5 | COc1cccc(-n2ncnc2C2=C(C)Nc3cc(C(F)(F)F)nn3[C@@H]2c2ccc(Cl)c(Cl)c2)n1 | 98%
6 | CC1=C(c2ncnn2C2CCCCC2)[C@@H](c2ccc(Cl)c(Cl)c2)n2nccc2N1 | 87%
7 | CC1=C(c2ncnn2C2CCC2)[C@@H](c2ccc(Cl)c(Cl)c2)n2nc(C)cc2N1 | 40%
8 | CC1=C(c2ncnn2C2CCC(C(F)(F)F)CC2)[C@@H](c2ccc(Cl)c(Cl)c2)n2nc(C(F)(F)F)cc2N1 (single isomer, unassigned; isomer 1) | 38%
9 | CC1=C(c2ncnn2C(C)C)[C@@H](c2ccc(Cl)c(Cl)c2)n2nccc2N1 | 26%

Tested on: Rattus norvegicus
Test: Antiarrhythmic activity in Sprague-Dawley rat assessed as decrease in ventricular effective refractory period at 0.3 mg/kg, iv administered as 5 mins infusion measured after 5 mins relative to control
Assay type: functional, Heart
Set-up: scale not given: the % may be the effect or the level left
Conditions: not given

Row | Compound | Activity
10 | CC1=C(c2ncnn2C2CCC(C(F)(F)F)CC2)[C@@H](c2ccc(Cl)c(Cl)c2)n2nc(C(F)(F)F)cc2N1 (single isomer, unassigned; isomer 1) | 25%

Tested on: not listed separately
Test: Plasma concentration in Sprague-Dawley rat at 0.3 mg/kg, iv administered as 5 mins infusion measured at 5 mins
Assay type: ADME, organism-based
Set-up: dose 0.3 mg/kg, route intravenous
Conditions: not given

Row | Compound | concentration at 5 min
11 | CC1=C(c2ncnn2C2CCC(C(F)(F)F)CC2)[C@@H](c2ccc(Cl)c(Cl)c2)n2nc(C(F)(F)F)cc2N1 (single isomer, unassigned; isomer 1) | 1.6 µM

Target: Potassium voltage-gated channel subfamily A member 5 (Homo sapiens, UniProt P22460)
Test: Antagonist activity at human Kv1.5 expressed in mouse L929 cells assessed as inhibition of delayed rectifier repolarization current by patch clamp assay
Assay type: cell-based
Conditions: not given

Chain of Potassium voltage-gated channel subfamily A member 5 (P22460 whole entry): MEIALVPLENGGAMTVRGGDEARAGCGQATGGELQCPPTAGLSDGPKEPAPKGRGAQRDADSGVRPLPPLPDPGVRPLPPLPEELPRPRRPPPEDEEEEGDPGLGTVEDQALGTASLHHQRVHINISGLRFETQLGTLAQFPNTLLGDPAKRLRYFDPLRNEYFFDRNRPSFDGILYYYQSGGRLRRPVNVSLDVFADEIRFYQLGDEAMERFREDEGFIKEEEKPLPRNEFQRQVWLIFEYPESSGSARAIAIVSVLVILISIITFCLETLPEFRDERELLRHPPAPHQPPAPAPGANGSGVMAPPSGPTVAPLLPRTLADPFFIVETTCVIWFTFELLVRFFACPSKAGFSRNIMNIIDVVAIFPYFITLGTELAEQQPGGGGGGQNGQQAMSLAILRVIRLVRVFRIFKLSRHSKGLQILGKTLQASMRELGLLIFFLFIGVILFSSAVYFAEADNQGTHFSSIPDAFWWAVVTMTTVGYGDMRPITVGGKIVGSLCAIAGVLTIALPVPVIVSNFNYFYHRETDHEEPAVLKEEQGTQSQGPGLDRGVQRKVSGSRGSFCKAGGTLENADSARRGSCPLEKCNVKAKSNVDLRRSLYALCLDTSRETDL

Row | Compound | IC50
12 | CC1=C(c2ncn(-c3ccccc3C)n2)[C@@H](c2ccc(Cl)c(Cl)c2)n2nc(C)cc2N1 | 0.722 µM
13 | CC1=C(c2ncnn2-c2cccc(F)n2)[C@@H](c2ccc(Cl)c(Cl)c2)n2nc(C(F)(F)F)cc2N1 | 0.256 µM
14 | CC1=C(c2ncnn2C2CCC(C(F)(F)F)CC2)[C@@H](c2ccc(Cl)c(Cl)c2)n2nc(C(F)(F)F)cc2N1 (single isomer, unassigned; isomer 1) | 0.133 µM
15 | CC1=C(c2ncnn2C2CCC(C(F)(F)F)CC2)[C@@H](c2ccc(Cl)c(Cl)c2)n2nc(C(F)(F)F)cc2N1 (single isomer, unassigned; isomer 2) | 0.607 µM

The next molecules have a lower IC50 than those just listed; values first:

Row | IC50 | Compound
16 | 0.074 µM | CC1=C(c2ncnn2-c2ccccc2F)[C@@H](c2ccc(Cl)c(Cl)c2)n2nccc2N1
17 | 0.087 µM | COc1cccc(-n2ncnc2C2=C(C)Nc3cc(C(F)(F)F)nn3[C@@H]2c2ccc(Cl)c(Cl)c2)n1
18 | 0.08 µM | CC1=C(c2ncnn2-c2ccc(C)cc2)[C@@H](c2ccc(Cl)c(Cl)c2)n2nccc2N1
19 | 0.127 µM | CC1=C(c2ncnn2C2CCCCC2)[C@@H](c2ccc(Cl)c(Cl)c2)n2nc(C)cc2N1
20 | 0.059 µM | CC1=C(c2ncnn2C2CCCCC2)[C@@H](c2ccc(Cl)c(Cl)c2)n2nccc2N1
21 | 0.094 µM | CC1=C(c2ncnn2C2CCC2)[C@@H](c2ccc(Cl)c(Cl)c2)n2nc(C)cc2N1
22 | 0.089 µM | CC1=C(c2ncnn2C(C)C)[C@@H](c2ccc(Cl)c(Cl)c2)n2nccc2N1

Tested on: not listed separately
Test: Clearance in Sprague-Dawley rat at 1 mg/kg, iv
Assay type: ADME, organism-based
Set-up: dose 1 mg/kg, route intravenous
Conditions: in vivo

Row | Compound | clearance
23 | CC1=C(c2ncnn2C2CCC2)[C@@H](c2ccc(Cl)c(Cl)c2)n2nc(C)cc2N1 | 6.06 L/h/kg
24 | CC1=C(c2ncnn2C2CCC(C(F)(F)F)CC2)[C@@H](c2ccc(Cl)c(Cl)c2)n2nc(C(F)(F)F)cc2N1 (single isomer, unassigned; isomer 1) | 1.74 L/h/kg

Target: T1, Cytochrome P450 1A2 (Homo sapiens, UniProt P05177)
T1 sequence (P05177 whole entry): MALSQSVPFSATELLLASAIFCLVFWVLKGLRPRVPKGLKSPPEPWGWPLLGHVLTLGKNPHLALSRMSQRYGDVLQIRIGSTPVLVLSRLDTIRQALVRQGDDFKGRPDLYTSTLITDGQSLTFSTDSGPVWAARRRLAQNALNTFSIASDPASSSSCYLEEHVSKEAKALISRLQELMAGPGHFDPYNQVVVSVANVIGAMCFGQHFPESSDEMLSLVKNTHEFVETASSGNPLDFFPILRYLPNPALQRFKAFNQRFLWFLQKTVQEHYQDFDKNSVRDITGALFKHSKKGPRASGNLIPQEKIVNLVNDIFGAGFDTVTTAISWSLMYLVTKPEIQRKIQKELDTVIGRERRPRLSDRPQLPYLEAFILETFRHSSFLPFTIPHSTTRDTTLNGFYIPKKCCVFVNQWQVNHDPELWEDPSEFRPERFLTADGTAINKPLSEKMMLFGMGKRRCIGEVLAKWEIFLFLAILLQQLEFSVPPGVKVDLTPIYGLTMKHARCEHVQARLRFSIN
Test: Inhibition of CYP1A2 (unknown origin)
Assay type: ADME
Conditions: not given

Row | Compound | INH
25 | CC1=C(c2ncnn2C2CCC(C(F)(F)F)CC2)[C@@H](c2ccc(Cl)c(Cl)c2)n2nc(C(F)(F)F)cc2N1 (single isomer, unassigned; isomer 2) | 40 µM

Target: Cytochrome P450 2C19 (Homo sapiens, UniProt P33261)
Test: Inhibition of CYP2C19 (unknown origin)
Assay type: ADME
Conditions: not given

Chain of Cytochrome P450 2C19 (P33261 whole entry): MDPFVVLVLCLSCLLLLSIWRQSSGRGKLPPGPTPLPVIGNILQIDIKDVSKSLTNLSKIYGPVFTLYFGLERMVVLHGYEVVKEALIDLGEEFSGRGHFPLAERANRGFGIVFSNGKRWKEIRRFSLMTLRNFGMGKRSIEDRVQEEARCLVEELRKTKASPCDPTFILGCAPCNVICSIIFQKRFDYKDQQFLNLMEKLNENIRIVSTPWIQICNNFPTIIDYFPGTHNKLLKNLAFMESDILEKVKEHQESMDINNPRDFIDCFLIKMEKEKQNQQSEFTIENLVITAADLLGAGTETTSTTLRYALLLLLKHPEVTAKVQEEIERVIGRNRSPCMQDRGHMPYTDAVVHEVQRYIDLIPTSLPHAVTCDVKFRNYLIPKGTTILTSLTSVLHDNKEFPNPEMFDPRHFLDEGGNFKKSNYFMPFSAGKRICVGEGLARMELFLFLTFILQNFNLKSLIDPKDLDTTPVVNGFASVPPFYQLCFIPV

Row | Compound | INH
26 | CC1=C(c2ncnn2C2CCC(C(F)(F)F)CC2)[C@@H](c2ccc(Cl)c(Cl)c2)n2nc(C(F)(F)F)cc2N1 (single isomer, unassigned; isomer 1) | 6 µM
27 | CC1=C(c2ncnn2C2CCC(C(F)(F)F)CC2)[C@@H](c2ccc(Cl)c(Cl)c2)n2nc(C(F)(F)F)cc2N1 (single isomer, unassigned; isomer 2) | 7 µM

Tested on: not listed separately
Test: Half life in Sprague-Dawley rat at 1 mg/kg, iv
Assay type: ADME, organism-based
Set-up: dose 1 mg/kg, route intravenous
Conditions: in vivo

Row | Compound | half-life
28 | CC1=C(c2ncnn2C2CCC2)[C@@H](c2ccc(Cl)c(Cl)c2)n2nc(C)cc2N1 | 36 min
29 | CC1=C(c2ncnn2C2CCC(C(F)(F)F)CC2)[C@@H](c2ccc(Cl)c(Cl)c2)n2nc(C(F)(F)F)cc2N1 (single isomer, unassigned; isomer 1) | 72 min

Target: Cytochrome P450 3A4 (Homo sapiens, UniProt P08684)
Test: Inhibition of CYP3A4 (unknown origin)
Assay type: ADME
Conditions: not given

Chain of Cytochrome P450 3A4 (P08684 whole entry): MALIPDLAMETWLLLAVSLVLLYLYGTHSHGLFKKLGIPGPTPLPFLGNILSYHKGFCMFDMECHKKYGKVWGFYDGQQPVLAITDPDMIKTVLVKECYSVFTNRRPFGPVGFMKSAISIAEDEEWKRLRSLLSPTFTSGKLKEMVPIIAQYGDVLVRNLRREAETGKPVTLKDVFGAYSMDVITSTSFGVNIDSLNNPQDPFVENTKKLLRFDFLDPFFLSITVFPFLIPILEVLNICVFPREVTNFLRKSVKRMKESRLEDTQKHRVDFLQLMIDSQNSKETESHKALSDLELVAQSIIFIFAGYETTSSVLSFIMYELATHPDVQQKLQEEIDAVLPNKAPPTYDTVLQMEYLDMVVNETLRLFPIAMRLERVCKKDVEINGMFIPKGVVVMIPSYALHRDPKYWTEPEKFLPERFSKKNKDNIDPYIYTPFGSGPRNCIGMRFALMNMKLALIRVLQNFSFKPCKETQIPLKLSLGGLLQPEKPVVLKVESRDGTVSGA

Row | Compound | INH
30 | CC1=C(c2ncnn2C2CCC(C(F)(F)F)CC2)[C@@H](c2ccc(Cl)c(Cl)c2)n2nc(C(F)(F)F)cc2N1 (single isomer, unassigned; isomer 1) | 40 µM
31 | CC1=C(c2ncnn2C2CCC(C(F)(F)F)CC2)[C@@H](c2ccc(Cl)c(Cl)c2)n2nc(C(F)(F)F)cc2N1 (single isomer, unassigned; isomer 2) | 25 µM

Target: Cytochrome P450 2D6 (Homo sapiens, UniProt P10635)
Test: Inhibition of CYP2D6 (unknown origin)
Assay type: ADME
Conditions: not given

Chain of Cytochrome P450 2D6 (P10635 whole entry): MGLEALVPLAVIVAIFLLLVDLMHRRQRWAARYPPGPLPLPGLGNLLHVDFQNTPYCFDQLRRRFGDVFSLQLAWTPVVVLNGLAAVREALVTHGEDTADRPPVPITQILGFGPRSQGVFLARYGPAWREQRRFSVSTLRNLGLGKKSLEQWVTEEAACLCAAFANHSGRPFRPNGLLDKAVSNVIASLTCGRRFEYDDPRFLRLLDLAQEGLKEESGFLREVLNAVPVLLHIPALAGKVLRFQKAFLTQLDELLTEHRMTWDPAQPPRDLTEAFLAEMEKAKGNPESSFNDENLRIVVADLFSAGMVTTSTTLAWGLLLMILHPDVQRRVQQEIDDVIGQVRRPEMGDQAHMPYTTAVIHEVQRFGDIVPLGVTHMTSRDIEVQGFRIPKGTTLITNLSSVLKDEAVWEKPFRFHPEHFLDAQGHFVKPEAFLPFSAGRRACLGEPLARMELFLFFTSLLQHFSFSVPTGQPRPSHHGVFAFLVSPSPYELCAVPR

Row | Compound | INH
32 | CC1=C(c2ncnn2C2CCC(C(F)(F)F)CC2)[C@@H](c2ccc(Cl)c(Cl)c2)n2nc(C(F)(F)F)cc2N1 (single isomer, unassigned; isomer 1) | 22 µM
33 | CC1=C(c2ncnn2C2CCC(C(F)(F)F)CC2)[C@@H](c2ccc(Cl)c(Cl)c2)n2nc(C(F)(F)F)cc2N1 (single isomer, unassigned; isomer 2) | 27 µM

Tested on: not listed separately
Test: Drug uptake in Sprague-Dawley rat brain at 0.3 mg/kg, iv administered as 5 mins infusion measured after 10 mins
Assay type: ADME, organism-based
Set-up: dose 0.3 mg/kg, route intravenous
Conditions: read-out: Drug uptake

Row | Compound | concentration at 10 min
34 | CC1=C(c2ncnn2C2CCC(C(F)(F)F)CC2)[C@@H](c2ccc(Cl)c(Cl)c2)n2nc(C(F)(F)F)cc2N1 (single isomer, unassigned; isomer 1) | 0.03 µM

Tested on: not listed separately
Test: Plasma concentration in Sprague-Dawley rat at 0.3 mg/kg, iv administered as 5 mins infusion measured after 10 mins
Assay type: ADME, organism-based
Set-up: dose 0.3 mg/kg, route intravenous
Conditions: not given

Row | Compound | concentration at 10 min
35 | CC1=C(c2ncnn2C2CCC(C(F)(F)F)CC2)[C@@H](c2ccc(Cl)c(Cl)c2)n2nc(C(F)(F)F)cc2N1 (single isomer, unassigned; isomer 1) | 0.43 µM

Tested on: Rattus norvegicus
Test: Antiarrhythmic activity in Sprague-Dawley rat assessed as increase in heart rate at 0.3 mg/kg, iv administered as 5 mins infusion measured after 5 mins relative to control
Assay type: functional
Conditions: not given

Row | Compound | Activity
36 | CC1=C(c2ncnn2C2CCC(C(F)(F)F)CC2)[C@@H](c2ccc(Cl)c(Cl)c2)n2nc(C(F)(F)F)cc2N1 (single isomer, unassigned; isomer 1) | 6%

Tested on: Rattus norvegicus
Test: Antiarrhythmic activity in Sprague-Dawley rat assessed as decrease in QT interval at 0.3 mg/kg, iv administered as 5 mins infusion measured after 5 mins relative to control
Assay type: functional, Heart
Set-up: scale not given: the % may be the effect or the level left
Conditions: not given

Row | Compound | Activity
37 | CC1=C(c2ncnn2C2CCC(C(F)(F)F)CC2)[C@@H](c2ccc(Cl)c(Cl)c2)n2nc(C(F)(F)F)cc2N1 (single isomer, unassigned; isomer 1) | 8%

Target: T2, Nuclear receptor subfamily 1 group I member 2 (Homo sapiens, UniProt O75469)
T2 sequence (O75469 whole entry): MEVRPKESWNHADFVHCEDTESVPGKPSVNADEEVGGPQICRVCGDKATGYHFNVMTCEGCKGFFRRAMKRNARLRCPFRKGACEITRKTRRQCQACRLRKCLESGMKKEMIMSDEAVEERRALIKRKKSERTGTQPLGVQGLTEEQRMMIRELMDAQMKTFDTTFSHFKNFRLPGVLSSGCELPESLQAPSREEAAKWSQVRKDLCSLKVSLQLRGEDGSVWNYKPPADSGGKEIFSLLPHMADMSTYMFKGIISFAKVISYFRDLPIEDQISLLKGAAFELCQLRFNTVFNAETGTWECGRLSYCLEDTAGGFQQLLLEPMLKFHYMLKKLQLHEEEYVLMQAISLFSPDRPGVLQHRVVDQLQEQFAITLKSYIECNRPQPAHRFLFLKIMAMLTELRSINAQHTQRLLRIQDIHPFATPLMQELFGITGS
Test: Transactivation of PXR (unknown origin)
Conditions: not given

Row | Compound | EC20
38 | CC1=C(c2ncnn2-c2cccc(F)n2)[C@@H](c2ccc(Cl)c(Cl)c2)n2nc(C(F)(F)F)cc2N1 | 0.07 µM
39 | COc1cccc(-n2ncnc2C2=C(C)Nc3cc(C(F)(F)F)nn3[C@@H]2c2ccc(Cl)c(Cl)c2)n1 | 0.96 µM
40 | CC1=C(c2ncnn2C2CCC(C(F)(F)F)CC2)[C@@H](c2ccc(Cl)c(Cl)c2)n2nc(C(F)(F)F)cc2N1 (single isomer, unassigned; isomer 1) | 5 µM
41 | CC1=C(c2ncnn2C2CCC(C(F)(F)F)CC2)[C@@H](c2ccc(Cl)c(Cl)c2)n2nc(C(F)(F)F)cc2N1 (single isomer, unassigned; isomer 2) | 3.6 µM

Tested on: Rattus norvegicus
Test: Antiarrhythmic activity in Sprague-Dawley rat assessed as decrease in blood pressure at 0.3 mg/kg, iv administered as 5 mins infusion measured after 5 mins
Assay type: functional
Set-up: scale not given: the % may be the effect or the level left
Conditions: not given

Row | Compound | Activity
42 | CC1=C(c2ncnn2C2CCC(C(F)(F)F)CC2)[C@@H](c2ccc(Cl)c(Cl)c2)n2nc(C(F)(F)F)cc2N1 (single isomer, unassigned; isomer 1) | 28%
